Results published in PubChem BioAssay (NCI).
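Here, GI50 denotes the concentration required for 50% inhibition of growth. The concentration for full growth arrest is given as TGI.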

Legend:
Experiment in all cases: NCI-60 cell line screen, 384-well format
HCT-15 colon = test system: HCT-15 colon
OVCAR-3 ovarian = test system: OVCAR-3 ovarian
BT-549 breast = test system: BT-549 breast
HOP-92 NSCLC = test system: HOP-92 NSCLC
NCI-H322M lung = test system: NCI-H322M lung
UO-31 renal = test system: UO-31 renal
CAKI-1 renal = test system: CAKI-1 renal
ACHN renal = test system: ACHN renal
NCI-H23 lung = test system: NCI-H23 lung
SK-MEL-2 melanoma = test system: SK-MEL-2 melanoma
SF-295 CNS = test system: SF-295 CNS
786-0 renal = test system: 786-0 renal
M14 melanoma = test system: M14 melanoma
OVCAR-4 ovarian = test system: OVCAR-4 ovarian
TK-10 renal = test system: TK-10 renal
PC-3 prostate = test system: PC-3 prostate
SF-268 CNS = test system: SF-268 CNS
OVCAR-8 ovarian = test system: OVCAR-8 ovarian
UACC-257 melanoma = test system: UACC-257 melanoma
A498 renal = test system: A498 renal
IGROV1 ovarian = test system: IGROV1 ovarian
NCI-H460 NSCLC = test system: NCI-H460 NSCLC
SR leukemia = test system: SR leukemia
SNB-19 CNS = test system: SNB-19 CNS
MDA-MB-435 melanoma = test system: MDA-MB-435 melanoma
SN12C renal = test system: SN12C renal
SNB-75 CNS = test system: SNB-75 CNS
HT29 colon = test system: HT29 colon
OVCAR-5 ovarian = test system: OVCAR-5 ovarian
UACC-62 melanoma = test system: UACC-62 melanoma
MOLT-4 leukemia = test system: MOLT-4 leukemia
T-47D breast = test system: T-47D breast
A549 NSCLC = test system: A549 NSCLC
SK-OV-3 ovarian = test system: SK-OV-3 ovarian
NCI-H226 lung = test system: NCI-H226 lung
NCI-H522 lung = test system: NCI-H522 lung
COLO 205 colon = test system: COLO 205 colon
EKVX NSCLC = test system: EKVX NSCLC
MCF7 breast = test system: MCF7 breast
HL-60(TB) leukemia = test system: HL-60(TB) leukemia
HCT-116 colon = test system: HCT-116 colon
U251 glioblastoma = test system: U251 glioblastoma
MALME-3M melanoma = test system: MALME-3M melanoma
SK-MEL-28 melanoma = test system: SK-MEL-28 melanoma
KM12 colon = test system: KM12 colon
MDA-MB-231 breast = test system: MDA-MB-231 breast
DU-145 prostate = test system: DU-145 prostate
HOP-62 NSCLC = test system: HOP-62 NSCLC
K-562 leukemia = test system: K-562 leukemia
SF-539 CNS = test system: SF-539 CNS
SW-620 colon = test system: SW-620 colon
SK-MEL-5 melanoma = test system: SK-MEL-5 melanoma
MDA-MB-468 breast = test system: MDA-MB-468 breast
RXF 393 renal = test system: RXF 393 renal
HS 578T breast = test system: HS 578T breast

## CC(C)[C@H]1C(=O)N[C@@H](CCCN=C(N)N)C(=O)NCC(=O)N[C@@H](CC(=O)O)C(=O)N[C@H](Cc2ccccc2)C(=O)N1C
HCT-15 colon
  GI50: > 100 µM
  TGI: > 100 µM
OVCAR-3 ovarian
  GI50: 53.9 µM
  TGI: > 100 µM
BT-549 breast
  GI50: 2.13 µM
  TGI: > 100 µM
HOP-92 NSCLC
  GI50: 6.51 µM
  TGI: > 100 µM
NCI-H322M lung
  GI50: > 100 µM
  TGI: > 100 µM
UO-31 renal
  GI50: 5.4 µM
  TGI: 99.4 µM
CAKI-1 renal
  GI50: 0.72 µM
  TGI: 14.4 µM
ACHN renal
  GI50: 4.33 µM
  TGI: > 100 µM
NCI-H23 lung
  GI50: > 100 µM
  TGI: > 100 µM
SK-MEL-2 melanoma
  GI50: > 100 µM
  TGI: > 100 µM
SF-295 CNS
  GI50: > 100 µM
  TGI: > 100 µM
786-0 renal
  GI50: 7.76 µM
  TGI: > 100 µM
M14 melanoma
  GI50: > 100 µM
  TGI: > 100 µM
OVCAR-4 ovarian
  GI50: 7.1 µM
  TGI: > 100 µM
TK-10 renal
  GI50: 2 µM
  TGI: > 100 µM
PC-3 prostate
  GI50: > 100 µM
  TGI: > 100 µM
SF-268 CNS
  GI50: 3.29 µM
  TGI: > 100 µM
OVCAR-8 ovarian
  GI50: 11 µM
  TGI: > 100 µM
UACC-257 melanoma
  GI50: > 100 µM
  TGI: > 100 µM
A498 renal
  GI50: 0.765 µM
  TGI: > 100 µM
IGROV1 ovarian
  GI50: 2.38 µM
  TGI: > 100 µM
NCI-H460 NSCLC
  GI50: 58.3 µM
  TGI: > 100 µM
SR leukemia
  GI50: 2.59 µM
  TGI: 12.2 µM
SNB-19 CNS
  GI50: 15.7 µM
  TGI: > 100 µM
MDA-MB-435 melanoma
  GI50: > 100 µM
  TGI: > 100 µM
SN12C renal
  GI50: > 100 µM
  TGI: > 100 µM
SNB-75 CNS
  GI50: 0.226 µM
  TGI: 0.871 µM
HT29 colon
  GI50: 53.1 µM
  TGI: > 100 µM
OVCAR-5 ovarian
  GI50: 74.5 µM
  TGI: > 100 µM
UACC-62 melanoma
  GI50: 70.8 µM
  TGI: > 100 µM
MOLT-4 leukemia
  GI50: 5.83 µM
  TGI: 18 µM
T-47D breast
  GI50: 38.3 µM
  TGI: > 100 µM
A549 NSCLC
  GI50: 39.3 µM
  TGI: > 100 µM
SK-OV-3 ovarian
  GI50: 41.8 µM
  TGI: > 100 µM
NCI-H226 lung
  GI50: 5.9 µM
  TGI: > 100 µM
NCI-H522 lung
  GI50: 3.98 µM
  TGI: > 100 µM
COLO 205 colon
  GI50: > 100 µM
  TGI: > 100 µM
EKVX NSCLC
  GI50: 2.3 µM
  TGI: 9.86 µM
MCF7 breast
  GI50: 13.9 µM
  TGI: > 100 µM
HL-60(TB) leukemia
  GI50: 42.7 µM
  TGI: > 100 µM
HCT-116 colon
  GI50: 26.7 µM
  TGI: > 100 µM
U251 glioblastoma
  GI50: 8.88 µM
  TGI: > 100 µM
MALME-3M melanoma
  GI50: > 100 µM
  TGI: > 100 µM
SK-MEL-28 melanoma
  GI50: > 100 µM
  TGI: > 100 µM
KM12 colon
  GI50: 42.5 µM
  TGI: > 100 µM
MDA-MB-231 breast
  GI50: 35.5 µM
  TGI: > 100 µM
DU-145 prostate
  GI50: 8.01 µM
  TGI: > 100 µM
HOP-62 NSCLC
  GI50: 4.51 µM
  TGI: > 100 µM
K-562 leukemia
  GI50: 37.7 µM
  TGI: > 100 µM
SF-539 CNS
  GI50: 27.2 µM
  TGI: > 100 µM
SW-620 colon
  GI50: 37.8 µM
  TGI: > 100 µM
SK-MEL-5 melanoma
  GI50: > 100 µM
  TGI: > 100 µM
MDA-MB-468 breast
  GI50: 59.8 µM
  TGI: > 100 µM
RXF 393 renal
  GI50: 0.194 µM
  TGI: 0.858 µM
HS 578T breast
  GI50: 3.76 µM
  TGI: > 100 µM
